What was measured:
BACE1 = BACE1 (Homo sapiens, UniProt P56817); assay: Determination of BACE1-inhibiting activity (fluorescence substrate cleavage); assay type: biochemical; details: compound 100 μM; BACE1 1.0 U/ml; substrate 750 nM Rh-EVNLDAEFK-Quencher; sodium acetate buffer pH 4.5; 25° C., 60 minutes; read-out: Inhibitory rate (%)
Procedure: Determination of BACE1-Inhibiting Activity
A sodium acetate analytical buffer solution ([…], pH 4.5) containing BACE1 (1.0 U/ml), a substrate of BACE1 (750 nM Rh-EVNLDAEFK-Quencher), a compound of the present invention (100 μM) was incubated at 25° C. for 60 minutes. The fluorescence intensity was determined by using a TECANGENios fluorimeter with a slit width of 10 nm, an excitation wavelength of 535 nm and an emission wavelength of 585 nm. Inhibitory rate(%)={1−[(S−S0)/(C−C0)]}*100%
C: the fluorescence intensity of the control (BACE1, substrate and analytical buffer solution) as determined after incubating for 60 minutes.
C0: the fluorescence intensity of the control (BACE1, substrate and analytical buffer solution) as determined after incubating for 0 minute.
S: the fluorescence intensity of the sample (BACE1, substrate, compound of the present invention and analytical buffer solution) as determined after incubating for 60 minutes.
S0: the fluorescence intensity of the sample (BACE1, substrate, compound of the present invention and analytical buffer solution) as determined after incubating for 0 minute.

Chain of BACE1 (P56817 46-501): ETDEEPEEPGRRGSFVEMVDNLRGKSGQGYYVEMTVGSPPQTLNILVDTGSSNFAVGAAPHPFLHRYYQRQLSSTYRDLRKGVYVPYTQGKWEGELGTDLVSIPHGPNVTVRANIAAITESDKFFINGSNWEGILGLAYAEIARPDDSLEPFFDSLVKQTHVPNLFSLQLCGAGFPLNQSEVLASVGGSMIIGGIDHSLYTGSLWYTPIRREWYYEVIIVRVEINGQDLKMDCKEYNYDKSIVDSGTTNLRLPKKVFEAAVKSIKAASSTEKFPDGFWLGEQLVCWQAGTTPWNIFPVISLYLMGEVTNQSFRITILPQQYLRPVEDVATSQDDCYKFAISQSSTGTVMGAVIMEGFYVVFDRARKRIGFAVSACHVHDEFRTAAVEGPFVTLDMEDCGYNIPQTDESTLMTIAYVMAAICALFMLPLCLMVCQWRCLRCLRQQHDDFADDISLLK

Compound	melting point [°C]	inhibition at 100 µM (BACE1) [%]
O=C(O)[C@H](Cc1ccccc1)NC(=O)[C@H](O)[C@@H](O)C(=O)NCc1ccccc1 [Example 10, L-(2R,3R)-2-(3-benzylcarbamoyl-2,3-dihydroxy-propionylamino)-3-phenyl-propionic acid]	236 to 238	–
COC(=O)CCCNC(=O)[C@H](O)[C@@H](O)C(=O)NCc1ccccc1 [Example 13, methyl L-(2R,3R)-4-(3-benzylcarbamoyl-2,3-dihydroxy-propionylamino)-butyrate]	142 to 145	–
O=C(O)c1ccc(CNC(=O)[C@H](O)[C@@H](O)C(=O)NCc2ccccc2)cc1 [Example 12, L-(2R,3R)-4-[(3-benzylcarbamoyl-2,3-dihydroxy-propionylamino)methyl]-benzoic acid]	177 to 178	–
COC(=O)c1cc(NC(=O)[C@H](O)[C@@H](O)C(=O)NCc2ccccc2)cc(C(=O)OC)c1 [Example 16, dimethyl L-(2R,3R)-5-(3-benzylcarbamoyl-2,3-dihydroxy-propionylamino)-isophthalate]	–	26.5
COC(=O)c1ccc(CNC(=O)[C@H](O)[C@@H](O)C(=O)NCc2ccccc2)cc1 [Example 8, methyl L-(2R,3R)-4-[(3-benzylcarbamoyl-2,3-dihydroxy-propionylamino)methyl]-benzoate]	205 to 206	–
COC(=O)CCCNC(=O)[C@H](OC(C)=O)[C@@H](OC(C)=O)C(=O)Nc1ccc(Oc2ccccc2)cc1 [Example 3, methyl L-(2R,3R)-4-[2,3-diacetoxy-3-(4-phenoxy-phenylcarbamoyl)-propionylamino]-butyrate]	–	39

Continued, values first:

melting point [°C]	inhibition at 100 µM (BACE1) [%]	Compound
–	45.3	COC(=O)c1ccc(CNC(=O)[C@H](O)[C@@H](O)C(=O)Nc2ccc3ccccc3c2)cc1 [Example 17, methyl L-(2R,3R)-4-{[2,3-dihydroxy-3-(naphthyl-2-carbamoyl)-propionylamino]methyl}-benzoate]
–	35	COC(=O)[C@H](Cc1ccccc1)NC(=O)[C@H](O)[C@@H](O)C(=O)Nc1ccc2ccccc2c1 [Example 19, methyl L-(2R,3R)-2-[2,3-dihydroxy-3-(naphthalen-2-ylcarbamoyl)-propionylamino]-3-phenyl-propionate]
169 to 170	22.5	O=C(O)CCCNC(=O)[C@H](O)[C@@H](O)C(=O)NCc1ccccc1 [Example 14, L-(2R,3R)-4-(3-benzylcarbamoyl-2,3-dihydroxy-propionylamino)-butyric acid]
153 to 154	–	COC(=O)C1CCC(CNC(=O)[C@H](O)[C@@H](O)C(=O)NCc2ccccc2)CC1 (stereo partly drawn) [Example 11, methyl L-(2R,3R)-4-(3-benzylcarbamoyl-2,3-dihydroxy-propionylaminomethyl)-cyclohexanecarboxylate]
–	22.3	COC(=O)C1CCC(CNC(=O)[C@H](O)[C@@H](O)C(=O)Nc2ccc3ccccc3c2)CC1 (stereo partly drawn) [Example 18, methyl L-(2R,3R)-4-{[2,3-dihydroxy-3-(naphthyl-2-carbamoyl)-propionylamino]methyl}-cyclohexanecarboxylate]
236 to 238	–	O=C(O)C1CCC(CNC(=O)[C@H](O)[C@@H](O)C(=O)NCc2ccccc2)CC1 (stereo partly drawn) [Example 15, L-(2R,3R)-4-[(3-benzylcarbamoyl-2,3-dihydroxy-propionylamino)methyl]-cyclohexanecarboxylic acid]

Reference: patent publication US8268884B2, “Derivatives of substituted tartaric acid and usage for preparing beta-secretase inhibitors” (Institute of Pharmacology and Toxicology Academy of …, priority 2006, dated 2012)
